Reference: US8426448B2, “1,5-diphenyl-pyrrolidin-2-one compounds as CB-1 ligands” (Eli Lilly and Company, priority 2008, dated 2013)
Structures can show the parent of a compound that is named as a salt.

Legend:
Dog oral bioavailability = assay type: in vivo; conditions: plasma; fasted female beagle dog; IV 0.25 mg/kg, PO 1 mg/kg; mean±s.d, n=2; based on AUC0-∞
Protocol: (§1) Cohorts of three or four 250-450 gram male Sprague-Dawley rats or approximately 10 kg Beagle dogs (female or male) are used. […] Dogs are administered i.v. by cannulated cephalic vein and blood collections are by jugular vein. Animals are first dosed at 0.25 mg/kg i.v. and blood samples (0.2 mL) are then collected using EDTA as an anticoagulant at 0.0830, 0.25, 0.50, 1, 2, 4, 8, 12, 24, 48, 72, 96, and 120 hours. Next after at least two days and after 18-24 hours fasting, the animals are dosed at 1.0 mg/kg by oral gavage. During the course of a study the total of blood (ml) collected is not to exceed 1% of total body weight in grams. Should larger blood volumes be required, the sampled blood volume is replace with heparinized whole blood from a donor animal. When using a cross-over study design, rats receive a volume of heparinized whole blood following the final sample of each study day approximately equal to that removed during study.
(§2) Compound plasma concentrations are measured by LC/MS/MS assays. Data are then analyzed using standard non-compartmental pharmacokinetic analysis. Oral bioavailability is calculated as: (AUC0-infinity,oral/AUC0-infinity,i.v.)×(Dose,i.v./Dose,oral)×100%

Rat oral bioavailability = assay type: in vivo; conditions: Sprague-Dawley, plasma, fasted male SD rats, IV 0.25 mg/kg (20% Pharmasolve, 10% HPBCD, pH 3), PO 1 mg/kg (1% CMC, 0.5% SLS, 0.5% AF), mean±s.d, n=3, based on AUC0-∞
Protocol: as §1, §2

hCB-1 [1] = target: T1, hCB-1 (Homo sapiens, UniProt P21554); test: hCB1-CHO antagonist mode SPA GTP-γ-35S binding assay; assay type: biochemical; design: purchased Applied Cell Sciences, Rockville, Md; host or cells: CHO cell membranes; conditions: antagonist mode vs methanandamide; read-out: hCB-1 SPA GTPγS CHO Membrane Antagonist Kb
Protocol: Compounds of the present invention may be tested for functional activity at the CB-1 and CB-2 receptors in both agonist and antagonist modes using SPA (Scintillation Proximity Assay) based GTP-γ-^35S binding assays. All assay components are prepared in assay buffer (20 mM HEPES, 100 mM NaCl, 5 mM MgCl2, pH 7.4) at room temperature. Semi-log dilutions of test compound are prepared in assay buffer containing BSA (0.125% final conc.) for the agonist mode assays. For the antagonist mode assays, test compounds are prepared in the same manner but also include an 80% efficacious dose of a full agonist (methanandamide). GTP-γ^35S binding for the antagonist assay may be measured in a 96 well format using a modification of an antibody capture technique previously described. (DeLapp, N W, et al. (1999) J Pharmacol Exp Ther 289:946-955.) The CB-2 receptor agonist activity may be measured using a similar method using hCB2-Sf9 membranes. The CB-1 receptor agonist activity may be measured using a whole membrane capture technique using hCB1-CHO membranes. All incubations are done at room temperature.
hCB1-CHO or rCB1-CHO membranes (Applied Cell Sciences, Rockville, Md.) and GDP (1 μM final) are added to ice cold assay buffer and homogenized. […] Plates are then centrifuged at 700×g for 10 min. and the radioactivity counted.
Data are analyzed as follows: Background is subtracted from all wells. […] Percent antagonist inhibition is calculated by first normalizing the data to the signal generated by a saturating concentration of the full agonist (methanandamide). Then the data are analyzed using a 4-parameter logistic reduced fit (Activity Base™ and XLFit3™ from IDBS, Emeryville, Calif.). Kb values are determined using a modification of the Cheng-Prusoff relationship: Kb=IC50/(1+[agonist]/EC50), where “IC50” is determined from a four parameter fit of displacement curves, “[agonist]” is the agonist challenge concentration (nM), and “EC50” is determined from a four parameter fit of a full agonist concentration response curve (Cheng and Prusoff 1973). […]

hCB-1 [2] = target: T1, hCB-1; test: hCB1-Sf9 antagonist mode SPA GTP-γ-35S binding assay; assay type: biochemical; design: purchased Applied Cell Sciences, Rockville, Md; conditions: Sf9 membrane 22.7 μg; antagonist mode vs methanandamide; read-out: hCB-1 SPA GTPγS Sf9 Membrane 22.7 μg Antagonist Kb
Protocol: Compounds of the present invention may be tested for functional activity at the CB-1 and CB-2 receptors in both agonist and antagonist modes using SPA (Scintillation Proximity Assay) based GTP-γ-^35S binding assays. All assay components are prepared in assay buffer (20 mM HEPES, 100 mM NaCl, 5 mM MgCl2, pH 7.4) at room temperature. Semi-log dilutions of test compound are prepared in assay buffer containing BSA (0.125% final conc.) for the agonist mode assays. For the antagonist mode assays, test compounds are prepared in the same manner but also include an 80% efficacious dose of a full agonist (methanandamide). GTP-γ^35S binding for the antagonist assay may be measured in a 96 well format using a modification of an antibody capture technique previously described. (DeLapp, N W, et al. (1999) J Pharmacol Exp Ther 289:946-955.) The CB-2 receptor agonist activity may be measured using a similar method using hCB2-Sf9 membranes. The CB-1 receptor agonist activity may be measured using a whole membrane capture technique using hCB1-CHO membranes. All incubations are done at room temperature. […]
Data are analyzed as follows: Background is subtracted from all wells. […] Percent antagonist inhibition is calculated by first normalizing the data to the signal generated by a saturating concentration of the full agonist (methanandamide). Then the data are analyzed using a 4-parameter logistic reduced fit (Activity Base™ and XLFit3™ from IDBS, Emeryville, Calif.). Kb values are determined using a modification of the Cheng-Prusoff relationship: Kb=IC50/(1+[agonist]/EC50), where “IC50” is determined from a four parameter fit of displacement curves, “[agonist]” is the agonist challenge concentration (nM), and “EC50” is determined from a four parameter fit of a full agonist concentration response curve (Cheng and Prusoff 1973). Mean Kb values are calculated as a mean of at least three independent determinations±standard error of the mean (SEM). […]

T1 sequence (P21554 whole entry): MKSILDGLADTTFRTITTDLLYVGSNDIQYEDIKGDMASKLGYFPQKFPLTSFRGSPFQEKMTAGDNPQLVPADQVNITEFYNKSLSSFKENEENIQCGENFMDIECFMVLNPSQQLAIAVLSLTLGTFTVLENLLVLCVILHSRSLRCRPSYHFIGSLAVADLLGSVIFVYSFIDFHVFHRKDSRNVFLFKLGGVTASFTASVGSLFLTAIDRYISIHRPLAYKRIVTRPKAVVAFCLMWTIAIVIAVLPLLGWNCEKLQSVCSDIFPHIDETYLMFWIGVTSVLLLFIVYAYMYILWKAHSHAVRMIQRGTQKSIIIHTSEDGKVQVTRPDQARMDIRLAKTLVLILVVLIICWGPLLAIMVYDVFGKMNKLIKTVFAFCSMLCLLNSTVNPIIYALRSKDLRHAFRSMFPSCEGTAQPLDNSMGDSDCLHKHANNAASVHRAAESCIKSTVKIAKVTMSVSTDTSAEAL

bioavailability (Dog oral bioavailability): 32 ± 18% | bioavailability (Rat oral bioavailability): 40 ± 6% | Kb (hCB-1 [1]): 0.464 nM | Kb (hCB-1 [2]): 0.59 nM
Compound: CC(C)(N[C@@H]1C[C@H](c2cccc(C(F)(F)F)c2)N(c2ccc(OC(F)(F)F)cc2)C1=O)c1cccc(C(F)(F)F)n1 [28 HCl salt, (3R,5R)-3-[1-methyl-1-(6-trifluoromethyl-pyridin-2-yl)-ethylamino]-1-(4-trifluoromethoxy-phenyl)-5-(3-trifluoromethyl-phenyl)-pyrrolidin-2-one]
